In data set [1] the test system is HIV-1-infected human peripheral blood mononuclear cells. In words: Cell viability (dye method) in HIV-1 chronically infected cell model derived from human peripheral blood mononuclear cells. The settings on record: for effect on the cell death-inducing effect specific for HIV-1-infected cells due to entinostat: Example 2: combination with entinostat 0.5 μM after protease inhibitor pretreatment; for cell death-inducing effect specific for HIV-1-infected cells: Example 4: treatment after 11 days culture. On the procedure:
Healthy donor-derived peripheral blood mononuclear cells were infected with HIV-1 strain IIIB in vitro to prepare an HIV-1 chronically infected cell model derived from human peripheral blood mononuclear cells, and a combination effect of an HIV-1 protease inhibitor (NFV or SQV) and an HDAC inhibitor (entinostat or vorinostat) was examined.
After HIV-1 infection or pseudo-infection (=mock-infection), the cells were cultured for 7 days and treated with various concentrations of each HIV-1 protease inhibitor for 3 days. For 3 days thereafter, treatment was carried out using combinations of each HIV-1 protease inhibitor having the same concentration and each HDAC inhibitor. The cell viability in each sample was measured by a dye method, and the amount of HIV-1 produced, by an ELISA method (HIV-1 p24 Antigen ELISA). […]

Data set [2] deals with HIV-1 strain IIIB. In words: Amount of HIV-1 produced (HIV-1 p24 Antigen ELISA) in HIV-1-infected human peripheral blood mononuclear cells. In kind it is cell-based.
In data set [3] the test system is HIV-1 strain IIIB. Nature of the data set: Amount of HIV-1 produced (HIV-1 p24 Antigen ELISA) in HIV-1-infected CD4T. In kind it is cell-based. The text has this:
(§1) In this Example, it was examined whether combined use with an HIV-1 reverse transcriptase inhibitor provided the same effect, by conducting a combination experiment with entinostat according to the experimental procedure shown in FIG. 13 using tenofovir (TFV) as one of the clinically most used HIV-1 reverse transcriptase inhibitors.
(§2) Then, it was examined whether combined use with an HIV-1 integrase inhibitor provided the same effect by conducting a combination experiment with entinostat according to the experimental procedure shown in FIG. 15 using dolutegravir (DTG) as one of the clinically most used HIV-1 integrase inhibitors.

In data set [4] the test system is HIV-1-infected CD4-positive T lymphocytes (CD4T). Nature of the data set: Cell viability (dye method) in CD4T-derived HIV-1 chronically infected cell model. The format is cell-based, human. Conditions: for effect on the cell death-inducing effect specific for HIV-1-infected cells due to entinostat: Example 6, CD4T, combination with entinostat; for cell death-inducing effect specific for HIV-1-infected cells in CD4T: Example 5: treated 4 days from day 3 or from day 7 after infection. On the procedure: In this Example, the action of various HDAC inhibitors on HIV-1-infected CD4T was analyzed using CD4T purified from human peripheral blood mononuclear cells.
as §1, §2

For a further data set, the system named is Cleaved caspase-3. Nature of the data set: Western blot of cleaved caspase-3 in CD4T. The format is cell-based, human. The settings on record: entinostat 0.5 μM. On the procedure:
(§3) The extracted protein was analyzed by a Western blot method.
(§4) The expression of each of Cleaved caspase-3 and Cleaved PARP was corrected with the expression of β-tublin as an internal control to make a graph.

The test system of data set [5] is HIV-1 latently infected cells (reservoir cells). The settings on record: literature report (Johnstone 2002); cited from earlier work.
In a further data set the test system is Cleaved PARP. In words: Western blot of cleaved PARP in CD4T. The format is cell-based, human. On the procedure: as §3, §4
The test system of data set [6] is mock-infected CD4-positive T lymphocytes (CD4T). Nature of the data set: Cell viability (dye method) of mock-infected CD4T. The settings on record: Example 5, CD4T. In kind it is cell-based, human.
Data set [7] has as its system mock-infected human peripheral blood mononuclear cells. Nature of the data set: Cell viability (dye method) of mock-infected human peripheral blood mononuclear cells. In kind it is cell-based. The settings on record: Example 4. On the procedure: After HIV-1 infection or pseudo-infection (=mock-infection), the cells were cultured for 7 days and treated with various concentrations of each HIV-1 protease inhibitor for 3 days. For 3 days thereafter, treatment was carried out using combinations of each HIV-1 protease inhibitor having the same concentration and each HDAC inhibitor. The cell viability in each sample was measured by a dye method, and the amount of HIV-1 produced, by an ELISA method (HIV-1 p24 Antigen ELISA).
After HIV-1 infection or pseudo-infection (=mock-infection), culture was performed for 11 days, and for 3 days from day 12, the combined administration of each HIV-1 protease inhibitor having various concentrations and the HDAC inhibitor was carried out. The cell viability in each sample was measured by a dye method, and the amount of HIV-1 produced, by an ELISA method (HIV-1 p24 Antigen ELISA).
After HIV-1 infection or pseudo-infection (=mock-infection), the cells were cultured for 11 days and treated with various concentrations of each HDAC inhibitor. The cell viability in each sample was measured by a dye method, and the amount of HIV-1 produced, by an ELISA method (HIV-1 p24 Antigen ELISA).

Setting [8] is: Example 2: protease inhibitor pretreatment 3 days, then combination 3 days, in the presence of entinostat of 0.5 μM.
[9] abbreviates: Example 3: simultaneous administration with entinostat, no pretreatment, 3 days from day 12.

Take `CC(C)(C)NC(=O)[C@@H]1C[C@@H]2CCCC[C@@H]2CN1C[C@@H](O)[C@H](Cc1ccccc1)NC(=O)[C@H](CC(N)=O)NC(=O)c1ccc2ccccc2n1` [SQV, saquinavir]: the “effect on the cell death-inducing effect specific for HIV-1-infected cells due to entinostat” value in data set [1] is recorded as “did not affect”. In addition, the HIV-1 production entry in the data set on HIV-1 strain IIIB [2] (setting [8]) is recorded as “concentration-dependently suppressed HIV-1 production”.
As for `CC(C)CN(C[C@@H](O)[C@H](Cc1ccccc1)NC(=O)O[C@H]1CO[C@H]2OCC[C@H]21)S(=O)(=O)c1ccc(N)cc1` [darunavir], the “concentration that strongly suppressed the increase in HIV-1 production due to entinostat” value with HIV-1 strain IIIB [2] (Example 3: simultaneous administration with entinostat) is no less than 100 nM. The HIV-1 production entry in the data set on HIV-1 strain IIIB [2] (setting [9]) is given as “suppressing HIV-1 production”. The “activation of HIV-1 production by entinostat” value in the data set on HIV-1 strain IIIB [3] (Example 6: 100 nM, administered simultaneously with entinostat, CD4T) is given as “strongly suppressing”.
Take `C[C@@H]1CCO[C@H]2Cn3cc(C(=O)NCc4ccc(F)cc4F)c(=O)c(O)c3C(=O)N12` [dolutegravir]: the “effect on the cell death-inducing effect specific for HIV-1-infected cells due to entinostat” value in data set [4] is listed as “did not affect”. Further, in the data set with HIV-1 strain IIIB [3] (Example 6, CD4T, in the absence of entinostat), the anti-HIV-1 effect result is “hardly had an anti-HIV-1 effect”.
Consider `Nc1ccccc1NC(=O)c1ccc(CNC(=O)OCc2cccnc2)cc1` [entinostat], for which the “increase of cleaved caspase-3 in HIV-1-infected CD4T versus pseudo-infected CD4T” value in the data set with Cleaved caspase-3 (24 hours) is reported as “more marked”. In addition, the “activated form of caspase-3 (cleaved caspase-3) expression” value in the data set with Cleaved caspase-3 (24 hours, pseudo-infected CD4T (Mock) and HIV-1-infected CD4T (HIV)) is “increase”. In the data set on Cleaved caspase-3 (48 hours, pseudo-infected CD4T and HIV-1-infected CD4T), the “increase in activated form of caspase-3” value was “not observed”. Further, the “cell death-inducing effect specific for HIV-1-infected cells in CD4T” value (“cell death-inducing effect specific … in CD4T” below) in data set [4] is on record as “cell death-inducing effect specific for HIV-1-infected cells”. Also, the “activation of HIV-1 latently infected cells to induce HIV-1 production” value in data set [5] was “activate HIV-1 latently infected cells”. Moreover, the “cell death-inducing effect specific for HIV-1-infected cells” value in [1] was “cell death-inducing effect specific for HIV-1-infected cells”. The viability at 0.5 µM in data set [1] (Homo sapiens, PBMC, read-out: cell viability of HIV-1-infected cells relative to cell viability of pseudo-infected (non-infected) cells) was roughly 50%. In the data set on Cleaved PARP (entinostat 0.5 μM, 24 hours, pseudo-infected CD4T and HIV-1-infected CD4T), the “cleaved PARP expression” value is given as “increase in the cleaved PARP was observed”. Further, the “expression of PARP (cleaved)” value in the data set with Cleaved PARP (entinostat, 48 hours, HIV-1-infected CD4T) is listed as “markedly increased”. The “effect of the HDAC inhibitor on HIV-1 production in infected cells” value in the data set on HIV-1 strain IIIB [2] (entinostat alone) is recorded as “activates HIV-1 production”.
`Cc1c(O)cccc1C(=O)N[C@@H](CSc1ccccc1)[C@H](O)CN1C[C@H]2CCCC[C@H]2C[C@H]1C(=O)NC(C)(C)C` [nelfinavir]: in [1], the “effect on the cell death-inducing effect specific for HIV-1-infected cells due to entinostat” value is reported as “did not affect”. Also, the HIV-1 production entry was “concentration-dependently suppressed HIV-1 production” in the data set with HIV-1 strain IIIB [2] (setting [8]) and “suppressing HIV-1 production” with HIV-1 strain IIIB [2] (setting [9]).
`C[C@H](Cn1cnc2c(N)ncnc21)OCP(=O)(O)O` [tenofovir]: the “effect on the cell death-inducing effect specific for HIV-1-infected cells due to entinostat” value in [4] is on record as “did not affect”. The “concentration at which HIV-1 production was still not suppressed” value with HIV-1 strain IIIB [3] (Example 6, CD4T, irrespective of the presence or absence of entinostat) is greater than 1 µM.
Regarding `O=C(CCCCCCC(=O)Nc1ccccc1)NO` [vorinostat], the “cell death-inducing effect specific … in CD4T” value in [4] was “no cell death-inducing effect specific for HIV-1-infected cells”. Besides, the “activation of HIV-1 latently infected cells to induce HIV-1 production” value in [5] is “activate HIV-1 latently infected cells”.
With chidamide, the “toxicity to mock-infected cells compared to entinostat” value in [6] is “less toxic”. Also, the “cell death-inducing effect against infected cells compared to entinostat” value in [4] (Example 5, CD4T) is “weaker cell death-inducing effect”. Also, in data set [4], the “cell death-inducing effect specific … in CD4T” value is listed as “cell death-inducing effect specific for HIV-1-infected cells”. For the same compound, in data set [1] (Example 4), the “cell death-inducing effect specific for HIV-1-infected cells compared with entinostat” value is “weaker cell death-inducing effect”. For the same compound, the “cell death-inducing effect specific for HIV-1-infected cells” value in data set [1] is given as “cell death-inducing effect specific for HIV-1-infected cells”. Besides, the “toxicity to mock-infected cells compared with entinostat” value in data set [7] is on record as “less toxic”.

The values are drawn from US20170312296A1, “AGENTS FOR KILLING HIV-1-INFECTED CELLS AND APPLICATION THEREOF” (KAGOSHIMA UNIVERSITY, priority 2015, published 2017).
